Experimental data reported in paper PMC5355877, “The development of novel LTA4H modulators to selectively target LTB4 generation” (Scientific Reports, 2017).
Entries after “also recorded” stand apart in the source; their conditions may differ. Where two headings read alike, the source gives them in different places.

Tests used:
[1] = target: T1, LTA4H epoxide hydrolase activity (LTB4 generation) (Mus musculus, UniProt P24527); experiment: LTA4H epoxide hydrolase activity: LTB4 generation by A23187-treated murine bone marrow neutrophils (EIA); assay type: cell-based
T1 construct: endogenous in cells; host or cells: murine bone marrow neutrophils
T1 sequence (P24527 1-611): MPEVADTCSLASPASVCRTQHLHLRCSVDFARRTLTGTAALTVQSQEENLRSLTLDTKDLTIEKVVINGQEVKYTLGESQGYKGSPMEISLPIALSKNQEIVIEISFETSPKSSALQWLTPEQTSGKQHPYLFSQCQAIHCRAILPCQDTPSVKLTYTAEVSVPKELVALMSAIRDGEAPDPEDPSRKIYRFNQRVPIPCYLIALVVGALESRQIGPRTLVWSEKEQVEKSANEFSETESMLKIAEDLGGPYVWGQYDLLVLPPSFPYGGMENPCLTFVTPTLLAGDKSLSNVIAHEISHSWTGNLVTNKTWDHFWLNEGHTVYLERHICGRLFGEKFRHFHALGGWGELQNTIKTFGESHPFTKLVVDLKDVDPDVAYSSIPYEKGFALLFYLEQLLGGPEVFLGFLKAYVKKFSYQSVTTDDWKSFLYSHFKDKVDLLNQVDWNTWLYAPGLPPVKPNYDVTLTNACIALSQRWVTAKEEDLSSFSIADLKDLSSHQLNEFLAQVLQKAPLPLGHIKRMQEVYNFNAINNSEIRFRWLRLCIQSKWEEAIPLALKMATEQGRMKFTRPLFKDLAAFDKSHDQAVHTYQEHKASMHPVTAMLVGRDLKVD
Description: To isolate murine bone marrow neutrophils, the femur and the tibia from both hind legs were removed and freed of soft tissue attachments, and the extreme distal tip of each extremity cut off. HBSS containing 15 mM EDTA and 30 mM HEPES was forced through the bone with a syringe. After dispersing cell clumps and passage through a […] sieve (BD labware, New Jersey), red blood cells were lysed by resuspending pellets in ACK buffer (for 3 minutes at room temperature) before centrifugation (800 × g, 5 min) and washing with HBSS. The cell suspension was centrifuged (800 × g, 5 min, 4 °C) and resuspended in RPMI.
1% DMSO was used as a control. Cells were incubated for 20 minutes at 37 °C, and the reaction was terminated by centrifugation (600 × g, 5 min, 4 °C). Supernatants were removed and stored at −80 °C for subsequent LTB4 analysis. The concentration of LTB4 generated in the epoxide hydrolase activity assay was assayed using an EIA, according to manufacturer’s directions (R&D systems, Minneapolis, MN). Test compounds were assayed in a blinded manner by an investigator during determination of effect on LTA4H epoxide hydrolase activity.

[2] = target: T2, recombinant human LTA4H (aminopeptidase, PGP substrate) (Homo sapiens, UniProt P09960); experiment: LTA4H aminopeptidase activity: PGP degradation by recombinant human LTA4H; assay type: biochemical
T2 construct: purchased Cayman Chemicals
T2 sequence (P09960 1-611): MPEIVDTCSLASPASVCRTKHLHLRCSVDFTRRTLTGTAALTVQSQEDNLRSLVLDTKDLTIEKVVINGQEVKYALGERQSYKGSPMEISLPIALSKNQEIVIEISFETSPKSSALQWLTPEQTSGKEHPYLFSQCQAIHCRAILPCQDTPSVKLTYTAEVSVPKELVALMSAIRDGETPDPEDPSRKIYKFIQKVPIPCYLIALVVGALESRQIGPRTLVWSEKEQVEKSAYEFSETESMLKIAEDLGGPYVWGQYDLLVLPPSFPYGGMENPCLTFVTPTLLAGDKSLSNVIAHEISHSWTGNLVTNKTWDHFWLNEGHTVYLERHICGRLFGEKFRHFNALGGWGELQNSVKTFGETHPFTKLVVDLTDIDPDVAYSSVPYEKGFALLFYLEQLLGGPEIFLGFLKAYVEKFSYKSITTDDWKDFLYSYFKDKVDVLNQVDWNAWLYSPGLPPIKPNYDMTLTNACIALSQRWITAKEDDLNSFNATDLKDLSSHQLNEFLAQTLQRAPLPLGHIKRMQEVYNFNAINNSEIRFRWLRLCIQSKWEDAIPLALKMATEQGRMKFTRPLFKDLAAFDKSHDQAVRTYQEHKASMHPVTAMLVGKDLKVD
Description: (§1) For peptide quantification in serum, PGP and AcPGP were measured using a MDS Sciex API-4000 spectrometer (Applied Biosystems, Foster City, CA) equipped with a Shimadzu HPLC (Columbia, MD). For peptide quantification from degradation experiments, PGP and AcPGP were measured using a Thermo Accela Pump and Autosampler coupled to a Thermo TSQ Quantum Access. […] Peak area was measured, and PGP/AcPGP peptide concentrations were calculated using a relative standard curve method as previously described.
(§2) Mouse serum (diluted 1/10 in PBS) or recombinant human LTA4H (0.1 μg/ml; Cayman Chemicals, Michigan, USA) were incubated with 0.4 mM PGP at 37 °C in 5% CO2 for varying periods of time. Concentrations of PGP remaining were subsequently quantified by ESI-LC/MS/MS (as discussed above) by comparison with PGP standards. The percentage of peptide degraded was determined relative to control samples of 0.4 mM PGP alone. PGP degradation was also assessed by measurement of free proline released and its ensuing reaction with Ninhydrin (as discussed below). Test compounds were assayed in a blinded manner by an investigator during determination of the effect on LTA4H aminopeptidase activity.
To assess free proline liberated, aliquots from PGP degradation experiments were diluted 1 in 10 in PBS (to a final volume of 250 μl). Glacial acetic acid (250 μl) was then added, followed by 250 μl of ninhydrin solution (25 mg/ml in acetic acid/6 M phosphoric acid; heated at 70 °C to dissolve). The reaction mixture was heated at 100 °C for 60 minutes, allowed to cool to room temperature and the proline containing fraction extracted with 500 μl of toluene and optical density measured at 520 nm.

[3] = target: T3, LTA4H aminopeptidase activity (Ala-p-nitroanilide substrate) (Homo sapiens, UniProt P09960); experiment: LTA4H aminopeptidase activity versus Ala-p-nitroanilide substrate; assay type: biochemical; details: in our hands
T3 sequence (P09960 1-611): T2 sequence (P09960 1-611)

[4] = target: T3, LTA4H aminopeptidase activity (Ala-p-nitroanilide substrate); design: method as in PMID 21983441; details: read-out: AC50 for augmenting aminopeptidase activity; cited from earlier work
[5] = Mouse liver microsome stability; assay type: in vitro ADME; details: liver microsomes
Source text: (§3) ARM1 (4-(4-benzylphenyl)-1,3-thiazole-2-amine), compound 11 (7-hydroxy-3-(4-hydroxyphenyl)-4H-chromen-4-one) and compound 13 (7-hydroxy-3-phenyl-4H-chromen-4-one) were all purchased from VitasMLab (Kowloon, Hong Kong). […] All other compounds were custom synthesized by Peakdale Molecular as described in Supplementary Information. ADMET (absorption, distribution, metabolism, and excretion – toxicity) studies were also outsourced to Peakdale Molecular.

[6] = Mouse plasma protein binding; assay type: in vitro ADME
Source text: as §3

logD pH7.4 = assay type: physicochemical; details: pH 7.4; read-out: logDpH7.4
Source text: as §3

[7] = Human liver microsome stability; assay type: in vitro ADME; details: liver microsomes
Source text: as §3

[8] = Human plasma protein binding; assay type: in vitro ADME
Source text: as §3

serum PGP = experiment: Absolute serum PGP concentrations after oral dosing of mice; assay type: in vivo; details: 10 mg/kg orally, naïve female BALB/c mice, blood 4 h after dosing
Description: (§4) Blood was obtained from mice 4 h after oral dosing and downstream analysis performed blinded by an independent researcher. […] The reaction was terminated by centrifugation (600 × g, 5 min, 4 °C). Supernatants were analyzed for LTB4 by EIA (see below). To assess inhibition of aminopeptidase activity, PGP degrading capacity of serum was assessed as detailed below. Furthermore, absolute concentrations of PGP in serum was determined as detailed below.
as §1

[9] = system: serum aminopeptidase PGP-degrading activity; experiment: Serum aminopeptidase PGP-degrading activity after oral dosing of mice; assay type: in vivo; details: 10 mg/kg orally, naïve female BALB/c mice, blood 4 h after dosing
Description: as §4, §2

LTB4 generation = details: oral administration to naïve mice; cited from earlier work
[10] = LTB4 generation, murine neutrophils, Table 2, read-out: Epoxide Hydrolase IC50 ± SEM
[11] = PGP degradation, Table 2, read-out: Aminopeptidase IC50 ± SEM
[12] = LTB4 generation, murine neutrophils, Table 1, read-out: Epoxide Hydrolase IC50 ± SEM
[13] = LTB4 generation, murine neutrophils, Table 3, read-out: Epoxide Hydrolase IC50 ± SEM
[14] = PGP degradation, Table 3, read-out: Aminopeptidase IC50 ± SEM

Oc1ccc(/C=C\c2cc(O)cc(O)c2)cc1 [Compound 2, cis-Resveratrol]
IC50 [1, 10]: 14.3 ± 2.1 µM

COc1ccc(/C=C/c2cc(OC)cc(OC)c2)cc1 [Compound 3, trans-trismethoxy Resveratrol]
IC50 [1, 10]: 41.2 ± 5.5 µM
IC50 [2, 11]: 68.8 ± 9.9 µM

CC(=O)Oc1ccc(/C=C/c2cc(OC(C)=O)cc(OC(C)=O)c2)cc1 [Compound 4, 5-[(1E)-2-[4-(acetyloxy)phenyl]ethenyl]-1,3-Benzenediol-1,3-diacetate]
IC50 [1]: 38.6 ± 5.9 µM
IC50 [2, 11]: > 100 µM

COc1ccc(Cc2ccccc2)cc1 [Compound 4-MDM, 4-Methoxydiphenylmethane, reference compound]
IC50 [1, 12]: 48.9 µM
effect on aminopeptidase activity versus Ala-p-nitroanilide substrate [3]: did promote aminopeptidase activity
AC50 [4]: 50 µM
IC50 ([2]; PGP degradation, recombinant LTA4H, Table 1, read-out: Aminopeptidase IC50 ± SEM): 75.2 µM
effect on aminopeptidase activity with physiological substrate PGP ([2]; PGP substrate): modest inhibition; also recorded: failed to augment PGP degradation

COc1cc(O)cc(/C=C/c2ccc(O)cc2)c1 [Compound 5, 3-[(1E)-2-(4-hydroxyphenyl)ethenyl]-5-methoxyphenol hydrate]
IC50 [1, 10]: 3.9 ± 0.4 µM
IC50 [2]: 99.5 ± 22.6 µM

COc1cc(O)cc(CCc2ccc(O)cc2)c1 [Compound 6]
IC50 [1, 10]: 6.4 ± 0.7 µM
IC50 [2, 11]: > 100 µM

CCOc1cc(O)cc(CCc2ccc(O)cc2)c1 [Compound 7]
IC50 [1, 10]: 3.2 ± 0.7 µM
IC50 [2, 11]: > 100 µM

COc1cc(O)cc(CCc2cccc(O)c2)c1 [Compound 8]
IC50 [1, 10]: 1.7 ± 0.25 µM
IC50 [2, 11]: > 100 µM

O=C(Cc1ccc(O)cc1)c1ccc(O)cc1O [Compound 10, 1-(2,4-Dihydroxyphenyl)-2-(4-hydroxyphenyl)ethanone]
IC50 [1, 13]: 34.2 ± 4.7 µM
IC50 [2, 14]: > 100 µM

O=c1c(-c2ccc(O)cc2)coc2c(O)c(O)ccc12 [Compound 12, 7,8,4′-trihydroxyisoflavone]
microsomal CLint [5]: 8.9 ± 0.7 µL/min/mg
half-life ([5]; read-out: Mouse liver microsomes t1/2): 1.3 ± 0.102 h
IC50 [1, 13]: 7.3 ± 0.8 µM
selectivity for hydrolase over peptidase inhibition ([1]; ratio of aminopeptidase to epoxide hydrolase IC50): > 8 fold
fraction unbound [6]: 0.0723
logD (logD pH7.4): 1.24 ± 0.06
microsomal CLint [7]: < 5 µL/min/mg
half-life ([7]; read-out: Human liver microsomes t1/2): > 2.32 h
fraction unbound [8]: 0.0326
IC50 [2, 14]: 62.7 ± 13.3 µM

O=c1c(-c2ccccc2)coc2cc(O)ccc12 [Compound 13, 7-hydroxy-3-phenyl-4H-chromen-4-one]
IC50 [1, 13]: 48.2 ± 14.6 µM
IC50 [2, 14]: > 100 µM

O=c1c(-c2ccc(O)cc2)coc2c3c(ccc12)OCO3 [Compound 14]
IC50 [1, 13]: 20.6 ± 2.4 µM
IC50 [2, 14]: 20.6 ± 3.3 µM

Cc1ccc2c(=O)c(-c3ccc(O)cc3)coc2c1O [Compound 15]
IC50 [1, 13]: 1.2 ± 0.21 µM
IC50 [2, 14]: 69.2 ± 10.9 µM

O=C(O)CCCN1CCC[C@H]1COc1ccc(Oc2ccc(Cl)cc2)cc1 [DG-051, 4-[(2S)-2-{[4-(4-chlorophenoxy)phenoxy]methyl}-1-pyrrolidinyl]butanoic acid, reference compound]
IC50 [1, 12]: 0.68 ± 0.01 µM

CC(=O)NC1CC2CCC(C1)N2Cc1ccc(Oc2nc3ncccc3s2)cc1 (stereo not drawn) [JNJ-40929837]
IC50 [1]: 0.009 ± 9e-05 µM
serum PGP (serum PGP): serum accumulation of PGP
serum aminopeptidase PGP-degrading activity [9]: potently abrogates; also recorded: potently inhibited
IC50 [2]: 0.0094 ± 0.0013 µM

CN(CCCOc1ccc(Cc2ccccc2)cc1)CCC(=O)O.Cl [SC57461A, 3-[methyl[3-[4-(phenylmethyl)phenoxy]propyl]amino]propanoic acid HCl]
IC50 [1, 12]: 0.11 ± 0.0235 µM
serum PGP (serum PGP): serum accumulation of PGP
inhibition of LTB4 generation in ex vivo whole blood assay (LTB4 generation): potent inhibition
serum aminopeptidase PGP-degrading activity [9]: potently abrogates; also recorded: potently inhibited
